In paper PMC10049699, “Identification and Empiric Evaluation of New Inhibitors of the Multidrug Transporter P-Glycoprotein (ABCB1)” (International Journal of Molecular Sciences, 2023):
pIC50: −log10 of the molar value. “Also recorded” adds a separate entry of the source.

What was measured:
Format in all cases: cell-based
ABCB1 [1] = target: T1, ABCB1 (Homo sapiens, UniProt P08183); experiment: OG-taxol efflux inhibition assay in Flp-In-ABCB1 cells, flow cytometry; conditions: 100 nM test compound, OG-taxol 0.4 μM
T1 construct: expressed in transfected cells
Text: (§1) The four compounds are potent inhibitors of calcein-AM transport, but can they inhibit the efflux of chemotherapeutic drugs. To address this question, we first substituted a fluorescent derivative of the anticancer drug taxol for calcein-AM in a transport assay. […] We next tested whether the drugs would sensitise the Flp-In-ABCB1 cells to the clinically relevant form of taxol. The Flp-In-ABCB1 cells and their parental Flp-In cells were challenged over a three-day period with a range of concentrations of taxol in the presence and absence of test compounds at 100 nM concentration.
(§2) Flp-In-293 and Flp-In-ABCB1-12His cells were grown as monolayers in Dulbecco’s modified Eagle medium (DMEM; ThermoFisher Sci, Waltham, MA, USA) supplemented with 10% foetal bovine serum (FBS; ThermoFisher Sci, Waltham, MA, USA). The cell lines were incubated in a humidified incubator at a temperature of 37 °C in an atmosphere of 5% CO2. For the drug transport assay, cells (3 × 10^5 per well) were seeded in a 24-well, flat-bottomed plate (Sarstedt AG and Co., Nümbrecht, Germany) in 500 μL growth medium and incubated for 24 h, as above. The medium was aspirated, and the cells were washed with the transport buffer (phenol-red free DMEM, with 1% FBS). Next, the cells were incubated with calcein-AM (Invitrogen, Waltham, MA, USA) at 250 nM or OG-taxol (Invitrogen, Waltham, MA, USA) at 0.4 μM in 200 μL transport buffer for 30 min at 37 °C in the presence or absence of inhibitor (Tariquidar was purchased from MedChemExpress (Monmouth Junction, NJ, USA) and the test inhibitors were from Chembridge Corporation (San Diego, CA, USA); Table 2). All test compounds, tariquidar, and calcein-AM were solubilized in DMSO and further diluted in transport buffer for the transport assay. The concentration of DMSO in the final solution never exceeded 1.1%, at which concentration it has no apparent effect on the cells or the function of ABCB1. The medium was then aspirated, and cells were washed with ice-cold transport buffer and harvested with 25 μL trypsin (TrypLE express enzyme; ThermoFisher Sci, Waltham, MA, USA). The cells were recovered in a flow cytometry tube in 300 μL ice-cold transport buffer for flow cytometry using a BD LSR II flow cytometer (Becton Dickinson, Franklin Lakes, NJ, USA).

ABCB1 [2] = target: T1, ABCB1; experiment: calcein-AM drug transport (accumulation) assay in live Flp-In-ABCB1 cells, flow cytometry; conditions: for pIC50: Flp-In-ABCB1 cells, 30 min, n = 3 biological repeats, read-out: IC50 for inhibition of ABCB1 transport activity; for mean bottom plateau value of ABCB1 activity curve (efficacy): ratio of calcein content of ABCB1 non-expressing cells to whole population, full inhibition at 1.0; for effect on ABCB1: preliminary data, up to a concentration of 100 nM
Experimental: We have previously integrated a single copy of pcDNA5/FRT-ABCB1-12His into the genome of Flp-In 293 cells to generate the Flp-In-ABCB1 cell line. To prevent possible drug–drug interactions during the transport assay, the Flp-In-ABCB1 cells were cultured in the absence of hygromycin, which is normally used to select for the continued expression of the hygromycin resistance gene carried on the pcDNA5/FRT plasmid. […] We also used the non-toxic cell-permeant dye calcein-AM as a transport substrate of ABCB1 [35, 36].
The concentration of calcein-AM was titrated until the ABCB1-positive cells began to accumulate calcein. […] This concentration was used in all further live cell transport assays. To test whether the assay could be applied to drug inhibition studies, we incubated the Flp-In-ABCB1 cells with calcein-AM in the presence of the third-generation inhibitor tariquidar.
These are the cells that no longer express ABCB1 (population […] in Figure 2B) due either to deletion of the plasmid from the genome or, perhaps more likely, silencing of the locus by chromatin condensation. These cells survive in the absence of hygromycin selection, but they are useful as they provide an internal negative control that can be easily identified in the single channel histogram at the lowest level of inhibitor. Transport activity of the ABCB1 was, thus, calculated using the fold difference in median drug accumulation by this ABCB1 non-expressing population G4 at the lowest concentration of inhibitor versus the median drug accumulation across all cells (population G5), as described in Equation (1). (1) Median drug accumulation in ABCB1 non−expressing cells G4/Median drug accumulation in the whole population G5
as §2
In order to correlate ABCB1 expression with calcein-AM efflux activity, a slightly different order was used, as described previously. Briefly, the cells were first detached from the well and incubated with saturating levels of primary antibody 4E3 (0.5 μg, Abcam, Cambridge, UK) in 100 μL transport buffer on ice for 30 min. […]

Flp-In parental cells = experiment: Taxol challenge assay, parental cells / growth with inhibitor alone; conditions: for cytotoxicity of test compound: 100 nM, three-day (72 h) period, cell line not specified; for effect on the growth of the Flp-In parental cells: test compound at 100 nM
Text: as §1
(§3) Flp-In-293 and Flp-In-ABCB1-12His cells (1 × 10^4) were seeded into a 96-well dish in 100 μL of medium, as above. Taxol (Cambridge Bioscience, Cambridge, UK) was added to a final concentration ranging from 0 nM to 10 μM in the presence or absence of inhibitors at 100 nM. The cells were cultured for a further 72 h, after which the medium was aspirated, and the cells were detached with 30 μL TrypLE Express (ThermoFisher Sci, Waltham, MA, USA) before quenching with 75 μL transport buffer and transfer to flow cytometry tubes. Cells of normal size and granularity, gated on the zero-drug condition and then applied to all samples, were counted in an ACEA NovoCyte flow cytometer (Agilent Technologies, Santa Clara, CA, USA). Cell number data were analysed in Graphpad PRISM (MacOS Version 9.4.1; GraphPad Software, San Diego, CA, USA). Curve fitting and statistical analysis was performed as above.

[3] = Taxol challenge assay (resensitisation to taxol); conditions: human; Flp-In-ABCB1 (ABCB1 wt) cells, three-day culture, n = 3; read-out: IC50 for taxol (cell number) in the absence of inhibitor
Text: as §1, §3

Flp-In-ABCB1 cells = experiment: Taxol challenge assay (resensitisation to taxol); conditions: test compound at 100 nM, three-day period
Text: as §1, §3

[4] = ratio of IC50 values, calcein-AM assay

T1 sequence (P08183 whole entry): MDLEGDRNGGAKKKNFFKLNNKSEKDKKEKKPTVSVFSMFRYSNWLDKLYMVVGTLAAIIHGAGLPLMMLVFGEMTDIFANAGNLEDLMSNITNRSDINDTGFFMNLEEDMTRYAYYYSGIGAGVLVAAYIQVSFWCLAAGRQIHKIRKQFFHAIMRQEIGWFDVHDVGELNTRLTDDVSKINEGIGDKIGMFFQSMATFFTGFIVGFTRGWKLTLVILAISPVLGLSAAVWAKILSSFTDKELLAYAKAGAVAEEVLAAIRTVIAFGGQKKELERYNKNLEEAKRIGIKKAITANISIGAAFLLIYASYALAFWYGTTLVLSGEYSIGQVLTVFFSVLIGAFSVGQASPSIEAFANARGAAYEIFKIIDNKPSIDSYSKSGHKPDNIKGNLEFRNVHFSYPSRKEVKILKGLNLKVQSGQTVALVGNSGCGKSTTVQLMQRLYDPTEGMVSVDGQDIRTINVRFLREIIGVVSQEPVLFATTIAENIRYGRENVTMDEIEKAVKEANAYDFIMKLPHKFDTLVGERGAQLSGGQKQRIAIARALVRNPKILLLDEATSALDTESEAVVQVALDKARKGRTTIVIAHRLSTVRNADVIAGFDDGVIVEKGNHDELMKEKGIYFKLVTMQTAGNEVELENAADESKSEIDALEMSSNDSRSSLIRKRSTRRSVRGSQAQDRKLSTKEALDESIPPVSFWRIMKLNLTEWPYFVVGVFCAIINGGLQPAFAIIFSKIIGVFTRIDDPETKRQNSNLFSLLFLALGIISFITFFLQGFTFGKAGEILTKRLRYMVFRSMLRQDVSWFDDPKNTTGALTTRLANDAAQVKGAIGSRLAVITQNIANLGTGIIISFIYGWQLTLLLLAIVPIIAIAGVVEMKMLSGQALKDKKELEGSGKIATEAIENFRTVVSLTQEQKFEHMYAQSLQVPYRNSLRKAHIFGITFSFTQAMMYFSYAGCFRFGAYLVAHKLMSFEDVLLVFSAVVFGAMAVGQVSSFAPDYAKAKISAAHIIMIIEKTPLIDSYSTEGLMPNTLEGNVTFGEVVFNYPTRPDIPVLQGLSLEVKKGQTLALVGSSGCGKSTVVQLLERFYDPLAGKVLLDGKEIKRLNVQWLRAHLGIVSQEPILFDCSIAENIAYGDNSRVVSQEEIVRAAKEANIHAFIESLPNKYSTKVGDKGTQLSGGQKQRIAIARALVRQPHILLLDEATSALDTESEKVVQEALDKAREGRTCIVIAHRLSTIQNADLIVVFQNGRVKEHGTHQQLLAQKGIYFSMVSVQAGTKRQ

| Structure (SMILES) | inhibition of OG-taxol efflux by ABCB1 (ABCB1 [1]) | pIC50 (ABCB1 [2]; 250 nM calcein-AM) | fold less potent than tariquidar (ABCB1 [2]; [4]) | mean bottom plateau value of ABCB1 activity curve (efficacy) (ABCB1 [2]) | further results |
| --- | --- | --- | --- | --- | --- |
| Cc1cccc(N2CCN(c3cc(C4CC(N)C4)nc(C4CC4)n3)CC2)c1C.Cl.Cl (stereo not drawn) [F, (3-{2-cyclopropyl-6-[4-(2,3-dimethylphenyl)-1-piperazinyl]-4-pyrimidinyl}cyclobutyl)amine dihydrochloride] | inhibition of OG-taxol efflux | 8.32 | 42 fold | 0.36 | cytotoxicity of test compound (Flp-In parental cells): did kill cells; also recorded: cytotoxic |
| Cc1ccc(N2CCN(c3cc(C4CC(N)C4)nc(N)n3)CC2)cc1C (stereo not drawn) [E, 4-(3-aminocyclobutyl)-6-[4-(3,4-dimethylphenyl)piperazin-1-yl]pyrimidin-2-amine] | inhibition of OG-taxol efflux | 7.84 | 128 fold | 0.93 | cytotoxicity of test compound (Flp-In parental cells): did kill cells; also recorded: cytotoxic |
| Cc1ccc(CNC(=O)C2CCN(c3cc(C4CC(N)C4)nc(C)n3)CC2)cc1.Cl.Cl (stereo not drawn) [B, 1-[6-(3-aminocyclobutyl)-2-methylpyrimidin-4-yl]-N-(4-methylbenzyl)piperidine-4-carboxamide dihydrochloride] | – | – | – | – | effect on ABCB1 (ABCB1 [2]; 250 nM calcein-AM): no effect |
| CC(=O)O[C@H]1C(=O)[C@@]2(C)[C@H]([C@H](OC(=O)c3ccccc3)[C@]3(O)C[C@H](OC(=O)[C@H](O)[C@@H](NC(=O)c4ccccc4)c4ccccc4)C(C)=C1C3(C)C)[C@]1(OC(C)=O)CO[C@@H]1C[C@@H]2O [taxol, reference compound] | – | – | – | – | pIC50 (Flp-In parental cells; 72 h, Flp-In parental cells, three-day culture, n = 3, read-out: IC50 for taxol (cell number) in the absence of inhibitor): 8.30; IC50 at 72 h [3]: 125 nM |
| COc1cc2c(cc1OC)CN(CCc1ccc(NC(=O)c3cc(OC)c(OC)cc3NC(=O)c3cnc4ccccc4c3)cc1)CC2 [Tariquidar, N-[2-[[4-[2-(6,7-dimethoxy-3,4-dihydro-1H-isoquinolin-2-yl)ethyl]phenyl]carbamoyl]-4,5-dimethoxyphenyl]quinoline-3-carboxamide, reference compound] | – | 9.94 | – | 0.78 | inhibition of ABCB1 (calcein accumulation to level of parental Flp-In cells) (ABCB1 [2]; 1 nM tariquidar, 250 nM calcein-AM): fully inhibited |
| Cc1nnc(NS(=O)(=O)c2ccc3c(c2)CN(C(=O)[C@H](N)C(C)C)CC3)s1 [C, N-(5-methyl-1,3,4-thiadiazol-2-yl)-2-D-valyl-1,2,3,4-tetrahydroisoquinoline-7-sulfonamide] | – | – | – | – | effect on ABCB1 (ABCB1 [2]; 250 nM calcein-AM): no effect |
| Cc1cccc(N2CCN(CC(=O)Nc3nnc(CCN(C)C)s3)CC2)c1 [D, N-{5-[2-(dimethylamino)ethyl]-1,3,4-thiadiazol-2-yl}-2-[4-(3-methylphenyl)piperazin-1-yl]acetamide] | inhibition of OG-taxol efflux | 7.63 | 200 fold | 0.58 | fold less potent than test compound 'A' (ABCB1 [2]; [4]): 17 fold; effect on the growth of the Flp-In parental cells (Flp-In parental cells; three-day culture): no effect; also recorded: do not inhibit cell growth; resensitisation of Flp-In-ABCB1 cells to taxol (Flp-In-ABCB1 cells): resensitised |
| O=C1CCC(CCNCc2ccccc2)N1Cc1ccc(-n2cccn2)cc1 (stereo not drawn) [A, 5-[2-(benzylamino)ethyl]-1-[4-(1H-pyrazol-1-yl)benzyl]-2-pyrrolidinone] | inhibition of OG-taxol efflux | 8.85 | 12 fold | 1.0 | effect on the growth of the Flp-In parental cells (Flp-In parental cells; three-day culture): no effect; also recorded: do not inhibit cell growth; resensitisation of Flp-In-ABCB1 cells to taxol (Flp-In-ABCB1 cells): resensitised |
